Test results as given in patent publication US20130023504A1, “Modulation of Prostaglandin/Cyclooxygenase Metabolic Pathways” (HUNTER-FLEMING LIMITED, priority 2006, published 2013).
Marks after values point to notes of the source that are not given here.

Test system: rats with DSS-induced colitis
Experiment: DSS-induced colitis in rats, 7-day i.p. pre-treatment
Type: in vivo, rat
Conditions: for Body weight: DSS (5%) day 7-14
Text: All experimental protocols and procedures were in agreement with the directive 86/609/CEE of the European Community, for the use of laboratory animals. Male Wistar rats (180-200 g), purchased from Charles River (L'Arbresle, France) were fed with rodent laboratory chow and were given water ad libitum.
After a 7-day adaptation period, animals were divided into two control groups (sham-control and 7β-hydroxy-EPIA-treated control group and two colitis groups (colitis and 7β-hydroxy-EPIA-treated colitis). 7β-Hydroxy-EPIA (0.01, 0.1, and 1 mg/kg body weight dissolved in DMSO) or DMSO alone (vehicle) was administered i.p. once a day for 7 days, from day 0 to day 7. Colitis was induced from day 7 to 14 by addition of DSS (molecular weight 36-50 kDa; MP Biomedicals, France) to drinking water. The two control groups received tap water only.
At day 9, 11, 13, 14, body weight, colon length, stool consistency, were recorded and fresh rectal bleeding evaluated by ocular inspection. The severity of colonic damage was blindly scored as described by Mabley et al., 2001, Inflamm. Res.; 50: 561-569) (0: well-formed pellets and no colon damage; 1: colon with a small amount of blood present mixed with feces; 2: colon with large amount of blood present with faeces; 3: colon filled with blood and no faeces).
A portion of the proximal colon (1 cm) was fixed in 4% formaldehyde (Labonord, Templemars, France) and embedded in paraffin. Tissue sections (5 μm) were prepared, thereafter cleared, hydrated and stained either with hematoxylin/eosin or with Alcian blue according to standard protocols for histological evaluation of colonic damage and mucus goblet cells content, respectively.
The colon was opened along the mesenteric border, and the epithelial cells were scrapped away with the blunt edge of a glass slide then weighed, washed and centrifuged. The pellet was homogenized in 9 volumes TKE buffer (10 mM Tris-HCl; 150 mM KCl; 1 mM EDTA; 0.25 mM PMSF, pH 7.4) and then frozen at −80° C. until further use. The protein content of homogenates were measured according to Lowry et al. (J Biol Chem 1951; 193: 265-74).
MPO activity was assessed in homogenates using the o-dianisidine method of Krawisz et al. (Gastroenterology 1984; 87(6):1344-50) with the modifications of Pelissier et al. (Steroids 2006; 71(3):240-8). MPO activity was expressed as the amount of enzyme necessary to produce a per minute change in absorbance at 460 nm using the extinction coefficient for oxidized o-dianisidine (1.13×10^4 mol^−1.cm^−1).
Lipid peroxidation (Tbars) was measured by a modification by Albrecht et al., (1992, Toxicol. Lett; 63: 91-96) of the method described by Ohkawa et al. (Anal Biochem 1979; 95:315-58). Absorbance of the red 1:2 adduct malondialdehyde-thiobarbituric acid (Sigma-Aldrich, St Quentin-Fallavier, France) was measured at 532 nm (extinction coefficient used: 0.156 μmol^−1 cm^−1). The carbonyl contents in oxidized proteins (Prot CO) were assessed by the method of Levine et al. (Methods Enzymol 1990; 186:464-78). The non-protein sulfhydryl group content (mostly GSH) was taken as the anti-oxidant defense marker in homogenates and determined by the method of Sedlak and Lindsay (Anal Biochem 1968; 25(1):192-205).
Commercially available EIA kits were used for the determination of PGE2 levels (Oxford Biomedical Research, UK) and 15d-PGJ2 levels (Assay designs, Euromedex, France) in colonic supernatants obtained from fresh homogenates. Measurement of PGD2 levels was obtained using the prostaglandin D2-MOX EIA kit (Cayman Chemical, Euromedex). In this case, and prior to assay, the fresh samples were immediately treated with the MOX-HCl reagent which converted PGD2 into PGD2-MOX, thus preventing any further chemical degradation.
Total RNA from fresh colonic samples (300 mg) was extracted using Trizol Reagent (Invitrogen, Cergy-Pontoise, France). […]

`CC12CCC3C(C1CCC2=O)[C@@H](O)C[C@H]1C[C@@H](O)CCC31C` (stereo partly drawn) [Compound 7β-OH-EPIA, 7β-hydroxy-EPIAndrosterone] was tested, and the “colitis damage and tissue inflammation” value (0.01 mg/kg) was “completely prevented”, the Body weight (0.01 mg/kg body weight i.p. day 0-7, day 14) was 297.5 ± 9.5^a g and the “DSS-induced production of colonic PGE2” value (0.01 mg/kg from D0 to D7) was “completely prevented”. For the same compound, the “colonic level of 15d-PGJ2” value (0.01 mg/kg from D0 to D7, DSS) was “dramatically increasing”, the Colon length (0.01 mg/kg, day 14) was 16 ± 0.01^c cm and the Epididymis weight (0.01 mg/kg, day 14) was 2.5 ± 0.03^a g. For the same compound, the Liver weight (0.01 mg/kg, day 14) was 12.1 ± 0.3^a g, the Spleen weight (0.01 mg/kg, day 14) was 0.8 ± 0.02^a g and the Body weight (0.1 mg/kg body weight i.p. day 0-7, day 14) was 272.1 ± 6^b g. For the same compound, the Colon length (0.1 mg/kg, day 14) was 15.6 ± 0.3^c cm, the Epididymis weight (0.1 mg/kg, day 14) was 1.9 ± 0.14^b g and the Liver weight (0.1 mg/kg, day 14) was 12.3 ± 0.6^a g. The Spleen weight (0.1 mg/kg, day 14) was 1.03 ± 0.2^a g, the Body weight (1 mg/kg body weight i.p. day 0-7, day 14) was 267.3 ± 7.7^b g and the Colon length (1 mg/kg, day 14) was 14.2 ± 0.6^b cm. For the same compound, the Epididymis weight (1 mg/kg, day 14) was 1.9 ± 0.1^b g, the Liver weight (1 mg/kg, day 14) was 11.9 ± 0.4^a g and the Spleen weight (1 mg/kg, day 14) was 0.82 ± 0.06^a g. For the same compound, the “diarrhea and rectal bleeding” value (0.01, 0.1 mg/kg, day 14) was “suppression”, the “MPO activity in colonic mucosa” value (all dose levels, 0.01, 0.1 and 1 mg/kg, vs colitis group) was “significantly decreased” and the “oxidative stress parameters (Prot CO, Tbars, GSH) in colonic tissue” value (day 13 and 14, all dose levels) was “restored”. For the same compound, the “increase in COX-2 and mPGES-1 mRNA synthesis by DSS” value (pre-treatment day 0 to day 7) was “suppressed”.
